{"source": "patent US6426407B1", "about": "“Residues for binding third strands to complementary nucleic acid duplexes of any base pair sequence” (Codon Pharm., priority 1995, dated 2002); as to third strand base complementary to center strand purine: key: a '+' means the bases are complementary or correspondent; a '−' means they are not complementary or not correspondent", "origin": "cited, not measured here", "key": {"[1]": {"test_system": "homopolymer GC duplexes, homopolymer AT duplexes, and mixed base-pair duplexes with alternating AG in the center strand"}}}
{"smiles": "OC[C@H]1O[C@@H](n2cnc3c(O)ncnc32)[C@H](O)[C@@H]1O", "note": "[I, inosine]", "values": [{"measurement": "third strand base complementary to center strand purine", "setting": "center strand purine A", "value": "+"}, {"measurement": "triplex formation", "setting": "[1]", "value": "forms triplexes"}, {"measurement": "third strand base complementary to center strand purine", "setting": "center strand purine G", "value": "+"}]}
{"smiles": "Nc1cc[nH]c(=O)n1", "note": "[C, cytosine]", "values": [{"measurement": "third strand base complementary to center strand purine", "setting": "center strand purine A", "value": "−"}, {"measurement": "third strand base complementary to center strand purine", "setting": "center strand purine G", "value": "+"}]}
{"smiles": "Nc1ncnc2nc[nH]c12", "note": "[A, adenine]", "values": [{"measurement": "third strand base complementary to center strand purine", "setting": "center strand purine A", "value": "+"}, {"measurement": "third strand base complementary to center strand purine", "setting": "center strand purine G", "value": "−"}]}
{"smiles": "Nc1nc2nc[nH]c2c(=O)[nH]1", "note": "[G, guanine]", "values": [{"measurement": "third strand base complementary to center strand purine", "setting": "center strand purine A", "value": "−"}, {"measurement": "third strand base complementary to center strand purine", "setting": "center strand purine G", "value": "+"}]}
